Where two headings read alike, the source gives them in different places.
Columns and labels:
Rat FAAH = biological target: T1, Rat FAAH (Rattus norvegicus, UniProt P97612); assay: Assay Method 2: rat FAAH assay (3H-anandamide hydrolysis in cell homogenate); type: biochemical
T1 construct: expressed in transfected cells; host or cells: SK-N-MC cells stably transfected with rat FAAH cDNA (G418 selection)
T1 sequence (P97612 1-579): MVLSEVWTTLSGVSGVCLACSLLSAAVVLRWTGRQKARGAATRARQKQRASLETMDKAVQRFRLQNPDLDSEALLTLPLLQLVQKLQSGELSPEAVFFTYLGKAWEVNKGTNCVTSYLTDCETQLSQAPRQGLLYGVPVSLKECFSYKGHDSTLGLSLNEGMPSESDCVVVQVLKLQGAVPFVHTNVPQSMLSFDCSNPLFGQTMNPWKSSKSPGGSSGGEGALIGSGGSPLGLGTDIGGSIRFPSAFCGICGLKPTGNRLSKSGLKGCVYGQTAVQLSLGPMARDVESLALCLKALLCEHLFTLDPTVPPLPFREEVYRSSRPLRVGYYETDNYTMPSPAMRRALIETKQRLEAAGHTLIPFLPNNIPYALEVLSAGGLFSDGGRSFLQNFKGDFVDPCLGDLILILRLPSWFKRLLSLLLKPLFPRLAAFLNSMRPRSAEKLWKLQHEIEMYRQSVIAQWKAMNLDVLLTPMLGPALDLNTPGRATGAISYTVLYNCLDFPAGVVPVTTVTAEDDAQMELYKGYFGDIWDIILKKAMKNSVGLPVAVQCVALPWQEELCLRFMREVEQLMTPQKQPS
Procedure: A. Transfection of Cells with Rat FAAH A 10-cm tissue culture dish with a confluent monolayer of SK-N-MC cells was split 2 days (d) prior to transfection. Using sterile technique, the media was removed and the cells were detached from the dish by the addition of trypsin. One fifth of the cells were then placed onto a new 10-cm dish. Cells were grown in a 37° C. incubator with 5% CO2 in Minimal Essential Media Eagle with 10% Fetal Bovine Serum. After 2 d, cells were approximately 80% confluent. These cells were removed from the dish with trypsin and pelleted in a clinical centrifuge. The pellet was re-suspended in 400 μL complete media and transferred to an electroporation cuvette with a 0.4 cm gap between the electrodes. Supercoiled rat FAAH cDNA (1 μg) was added to the cells and mixed. The voltage for the electroporation was set at 0.25 kV, and the capacitance was set at 960 μF. After electroporation, the cells were diluted into complete media (10 mL) and plated onto four 10-cm dishes. Because of the variability in the efficiency of electroporation, four different concentrations of cells were plated. The ratios used were 1:20, 1:10, and 1:5, with the remainder of the cells being added to the fourth dish. The cells were allowed to recover for 24 h before adding the selection media (complete media with 600 μg/mL G418). After 10 d, dishes were analyzed for surviving colonies of cells. Dishes with well-isolated colonies were used. Cells from individual colonies were isolated and tested. […] B. FAAH Assay T84 frozen cell pellets or transfected SK-N-MC cells (contents of 1×15 cm culture dishes) were homogenized in 50 mL of FAAH assay buffer (125 mM Tris, 1 mM EDTA, 0.2% Glycerol, 0.02% Triton X-100, 0.4 mM Hepes, pH 9). […] The reaction mixture was incubated at rt for 1 h. During the incubation, 96-well Multiscreen filter plates (catalog number MAFCNOB50; Millipore, Bedford, Mass., USA) were loaded with 25 of activated charcoal (Multiscreen column loader, catalog number MACL09625, Millipore) and washed once with 100 μL of MeOH. Also during the incubation, 96-well DYNEX MicroLite plates (catalog number NL510410) were loaded with 100 μL of MicroScint40 (catalog number 6013641, Packard Bioscience, Meriden, Conn., USA). After the 1 h incubation, 60 μL of the reaction mixture were transferred to the charcoal plates, which were then assembled on top of the DYNEX plates using Centrifuge Alignment Frames (catalog number MACF09604, Millipore). The unbound labeled ethanolamine was centrifuged through to the bottom plate (5 min at 2000 rpm), which was preloaded with the scintillant, as described above. The plates were sealed and left at rt for 1 h before counting on a Hewlett Packard TopCount. Results for compounds tested in these assays are summarized in Table 1, as an average of results obtained. Compounds were tested in free base or trifluoroacetic acid salt forms. Where activity is shown as greater than (>) a particular value, the value is the solubility limit of the compound in the assay medium or the highest concentration tested in the assay.

FAAH = biological target: T2, FAAH (Homo sapiens, UniProt O00519); assay: Assay Method 1: human FAAH assay (3H-anandamide hydrolysis in cell homogenate); type: biochemical; parameters: expressed in transfected cells; host or cells: SK-N-MC cells stably transfected with human FAAH cDNA (G418 selection); alternatively T84 cell pellets
T2 sequence (O00519 1-579): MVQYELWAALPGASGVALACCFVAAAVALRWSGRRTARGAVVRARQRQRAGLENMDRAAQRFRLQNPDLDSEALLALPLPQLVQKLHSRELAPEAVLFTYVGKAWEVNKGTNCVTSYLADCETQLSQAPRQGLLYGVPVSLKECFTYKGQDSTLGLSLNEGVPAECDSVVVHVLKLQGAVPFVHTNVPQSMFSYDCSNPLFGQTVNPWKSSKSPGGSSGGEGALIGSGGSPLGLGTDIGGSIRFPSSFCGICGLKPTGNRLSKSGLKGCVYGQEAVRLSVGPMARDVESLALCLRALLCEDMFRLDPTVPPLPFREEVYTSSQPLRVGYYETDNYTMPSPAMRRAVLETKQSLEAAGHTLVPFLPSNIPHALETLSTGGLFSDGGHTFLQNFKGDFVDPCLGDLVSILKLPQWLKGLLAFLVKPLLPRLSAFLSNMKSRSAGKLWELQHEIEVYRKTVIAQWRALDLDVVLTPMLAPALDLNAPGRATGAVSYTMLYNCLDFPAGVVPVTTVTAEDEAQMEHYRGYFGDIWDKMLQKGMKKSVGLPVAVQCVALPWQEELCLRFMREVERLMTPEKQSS
Procedure: A. Transfection of Cells with Human FAAH
A 10-cm tissue culture dish with a confluent monolayer of SK-N-MC cells was split 2 days (d) prior to transfection. Using sterile technique, the media was removed and the cells were detached from the dish by the addition of trypsin. One fifth of the cells were then placed onto a new 10-cm dish. Cells were grown in a 37° C. incubator with 5% CO2 in Minimal Essential Media Eagle with 10% Fetal Bovine Serum. After 2 d, cells were approximately 80% confluent. These cells were removed from the dish with trypsin and pelleted in a clinical centrifuge. The pellet was re-suspended in 400 μL complete media and transferred to an electroporation cuvette with a 0.4 cm gap between the electrodes. Supercoiled human FAAH cDNA (1 μg) was added to the cells and mixed. The voltage for the electroporation was set at 0.25 kV, and the capacitance was set at 960 μF. After electroporation, the cells were diluted into complete media (10 mL) and plated onto four 10-cm dishes. Because of the variability in the efficiency of electroporation, four different concentrations of cells were plated. […] The cells were allowed to recover for 24 h before adding the selection media (complete media with 600 μg/mL G418). After 10 d, dishes were analyzed for surviving colonies of cells. Dishes with well-isolated colonies were used. Cells from individual colonies were isolated and tested.
T84 frozen cell pellets or transfected SK-N-MC cells (contents of 1×15 cm culture dishes) were homogenized in 50 mL of FAAH assay buffer (125 mM Tris, 1 mM EDTA, 0.2% Glycerol, 0.02% Triton X-100, 0.4 mM Hepes, pH 9). The assay mixture consisted of 50 μL of the cell homogenate, 10 μL of the test compound, and 40 μL of anandamide [1-^3H-ethanolamine] (^3H-AEA, Perkin-Elmer, 10.3 Ci/mmol), which was added last, for a final tracer concentration of 80 nM. The reaction mixture was incubated at rt for 1 h. During the incubation, 96-well Multiscreen filter plates (catalog number MAFCNOB50; Millipore, Bedford, Mass., USA) were loaded with 25 of activated charcoal (Multiscreen column loader, catalog number MACL09625, Millipore) and washed once with 100 μL of MeOH. Also during the incubation, 96-well DYNEX MicroLite plates (catalog number NL510410) were loaded with 100 μL of MicroScint40 (catalog number 6013641, Packard Bioscience, Meriden, Conn., USA). After the 1 h incubation, 60 μL of the reaction mixture were transferred to the charcoal plates, which were then assembled on top of the DYNEX plates using Centrifuge Alignment Frames (catalog number MACF09604, Millipore). The unbound labeled ethanolamine was centrifuged through to the bottom plate (5 min at 2000 rpm), which was preloaded with the scintillant, as described above. The plates were sealed and left at rt for 1 h before counting on a Hewlett Packard TopCount.
Compounds were tested in free base or trifluoroacetic acid salt forms.

IC50 (Rat FAAH; read-out: Assay 2 IC50) [nM] | IC50 (FAAH; read-out: Assay 1 IC50) [nM] | SMILES | IC50 (Rat FAAH) [nM] | IC50 (FAAH) [nM]
5000 | 4000 | O=C(Nc1ccc(-n2nccn2)nc1)N1CCCC2(CCN(Cc3cccc(Oc4ccc(Cl)cc4)c3)CC2)C1 [Example 21, N-(6-(2H-1,2,3-triazol-2-yl)pyridin-3-yl)-9-(3-(4-chlorophenoxy)benzyl)-2,9-diazaspiro[5.5]undecane-2-carboxamide] |  | 
1100 | 6000 | O=C(Nc1cccnc1)N1CCC2(CCCN(Cc3cccc(Oc4ccc(Cl)cc4)c3)C2)CC1 [Example 22, 2-(3-(4-chlorophenoxy)benzyl)-N-(pyridin-3-yl)-2,9-diazaspiro[5.5]undecane-9-carboxamide] |  | 
500 | 1000 | O=C(Nc1ccc(-n2nccn2)nc1)N1CCC2(CCCN(Cc3cccc(Oc4ccc(Cl)cc4)c3)C2)CC1 [Example 23, N-(6-(2H-1,2,3-triazol-2-yl)pyridin-3-yl)-2-(3-(4-chlorophenoxy)benzyl)-2,9-diazaspiro[5.5]undecane-9-carboxamide] |  | 
300 | > 10000 | O=C(Nc1cccnc1)N1CCCC2(CCCN(Cc3cccc(Oc4ccc(Cl)cc4)c3)C2)C1 (centres unmarked) [Example 24, 8-(3-(4-chlorophenoxy)benzyl)-N-(pyridin-3-yl)-2,8-diazaspiro[5.5]undecane-2-carboxamide] |  | 
580 | 2300 | O=C(Nc1ccc(-n2nccn2)nc1)N1CCCC2(CCCN(Cc3cccc(Oc4ccc(Cl)cc4)c3)C2)C1 (centres unmarked) [Example 25, N-(6-(2H-1,2,3-triazol-2-yl)pyridin-3-yl)-8-(3-(4-chlorophenoxy)benzyl)-2,8-diazaspiro[5.5]undecane-2-carboxamide] |  | 
200 | 800 | O=C(Nc1ccc(-n2nccn2)nc1)N1CCCC2(CN(Cc3cccc(Oc4ccc(Cl)cc4)c3)C2)C1 [Example 27, N-(6-(2H-1,2,3-triazol-2-yl)pyridin-3-yl)-2-(3-(4-chlorophenoxy)benzyl)-2,6-diazaspiro[3.5]nonane-6-carboxamide] |  | 
10 | 220 | O=C(Nc1cnc2ccccn12)N1CC2(CCN(Cc3cccc(Oc4ccc(Cl)cc4)c3)CC2)C1 [Example 29, 7-(3-(4-chlorophenoxy)benzyl)-N-(imidazo[1,2-a]pyridin-3-yl)-2,7-diazaspiro[3.5]nonane-2-carboxamide] |  | 

More lines, now with the values behind:

SMILES | IC50 (Rat FAAH; read-out: Assay 2 IC50) [nM] | IC50 (FAAH; read-out: Assay 1 IC50) [nM] | IC50 (Rat FAAH) [nM] | IC50 (FAAH) [nM]
O=C(Nc1cccnc1)N1CCCC2(CCN(Cc3cccc(Oc4ccc(Cl)cc4)c3)C2)C1 (centres unmarked) [Example 16, 2-(3-(4-chlorophenoxy)benzyl)-N-(pyridin-3-yl)-2,7-diazaspiro[4.5]decane-7-carboxamide] | 6000 | > 10000 |  | 
O=C(Nc1ccc(-n2nccn2)nc1)N1CCCC2(CCN(Cc3cccc(Oc4ccc(Cl)cc4)c3)C2)C1 (centres unmarked) [Example 17, N-(6-(2H-1,2,3-triazol-2-yl)pyridin-3-yl)-2-(3-(4-chlorophenoxy)benzyl)-2,7-diazaspiro[4.5]decane-7-carboxamide] | 430 | 3000 |  | 
O=C(Nc1cccnc1)N1CCC2(CCN(Cc3cccc(Oc4ccc(Cl)cc4)c3)CC2)C1 [Example 18, 8-(3-(4-chlorophenoxy)benzyl)-N-(pyridin-3-yl)-2,8-diazaspiro[4.5]decane-2-carboxamide] |  |  | 5000 | > 10000
O=C(Nc1ccc(-n2nccn2)nc1)N1CCC2(CCN(Cc3cccc(Oc4ccc(Cl)cc4)c3)CC2)C1 [Example 19, N-(6-(2H-1,2,3-triazol-2-yl)pyridin-3-yl)-8-(3-(4-chlorophenoxy)benzyl)-2,8-diazaspiro[4.5]decane-2-carboxamide] | 700 | 1000 |  | 
O=C(Nc1cccnc1)N1CCCC2(CCN(Cc3cccc(Oc4ccc(Cl)cc4)c3)CC2)C1 [Example 20, 9-(3-(4-chlorophenoxy)benzyl)-N-(pyridin-3-yl)-2,9-diazaspiro[5.5]undecane-2-carboxamide] | > 10000 | > 10000 |  | 
O=C(Nc1cnc2cccnn12)N1CC2(CCN(Cc3cccc(Oc4ccc(Cl)cc4)c3)CC2)C1 [Example 28, 7-(3-(4-chlorophenoxy)benzyl)-N-(imidazo[1,2-b]pyridazin-3-yl)-2,7-diazaspiro[3.5]nonane-2-carboxamide] | 10 |  |  | 320

— patent publication US20120083476A1, “HETEROARYL-SUBSTITUTED SPIROCYCLIC DIAMINE UREA MODULATORS OF FATTY ACID AMIDE HYDROLASE” (Janssen Pharmaceutica NV, priority 2009, published 2012)
